This is an account of results in paper PMC11617094 (Molecular Biology of the Cell, 2024).

Where a chain is given by its changes, count along the chain named. Names may count otherwise.

Series [1] concerns the target T1, Alp7A (Bacillus subtilis, UniProt C7F6X5).
T1 construct: untagged native Alp7A encoded by plasmid pLS20, codon-optimised gene in pET28a (NcoI/HindIII), expressed in E. coli C43, purified by a polymerization cycle and gel filtration; forms two-stranded filaments
T1 sequence (C7F6X5 1-391): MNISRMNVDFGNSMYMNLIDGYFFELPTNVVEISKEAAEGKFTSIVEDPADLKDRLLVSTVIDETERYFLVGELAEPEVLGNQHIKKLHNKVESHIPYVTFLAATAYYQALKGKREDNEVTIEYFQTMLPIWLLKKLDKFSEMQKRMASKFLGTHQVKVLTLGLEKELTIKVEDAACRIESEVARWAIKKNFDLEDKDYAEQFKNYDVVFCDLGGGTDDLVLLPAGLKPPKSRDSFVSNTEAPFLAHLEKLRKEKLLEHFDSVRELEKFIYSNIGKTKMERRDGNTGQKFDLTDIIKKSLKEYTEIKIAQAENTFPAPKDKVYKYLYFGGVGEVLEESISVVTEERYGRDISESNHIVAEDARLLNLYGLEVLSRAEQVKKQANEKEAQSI
In words: EnzChek phosphate release (ATPase on polymerization). Format: biochemical. The settings on record: 10 mM ATP/Mg, 25 mM Tris pH 7.5, 100 mM KCl, 1 mM MgCl2, 1 mM DTT; no Alp7R.

Series [2] addresses T2, Alp7A (Bacillus subtilis, UniProt C7F6X5, E180A).
T2 construct: untagged native Alp7A encoded by plasmid pLS20, codon-optimised gene in pET28a (NcoI/HindIII), expressed in E. coli C43, purified by a polymerization cycle and gel filtration; forms two-stranded filaments
The series can be described thus: right-angle light scattering of ATP-induced polymerization; phosphate release. The settings on record: Mg-ATP 3 mM (polymerization) or 10 mM (phosphate release), 25 mM Tris pH 7.5, 100 mM KCl, 1 mM MgCl2, 1 mM DTT; nucleotide-binding pocket mutant.

Series [3] addresses Alp7A (wild type, native, unlabelled) (Bacillus subtilis (plasmid pLS20)) (UniProt C7F6X5).
Series [4] concerns the molecule itself. In words: negative-stain electron microscopy; polymers formed with 3 mM ATP/Mg++, adsorbed to carbon-coated grids, 0.75% uranyl formate; buffer as for light scattering.

T2 sequence (C7F6X5 entry or part of it E180A): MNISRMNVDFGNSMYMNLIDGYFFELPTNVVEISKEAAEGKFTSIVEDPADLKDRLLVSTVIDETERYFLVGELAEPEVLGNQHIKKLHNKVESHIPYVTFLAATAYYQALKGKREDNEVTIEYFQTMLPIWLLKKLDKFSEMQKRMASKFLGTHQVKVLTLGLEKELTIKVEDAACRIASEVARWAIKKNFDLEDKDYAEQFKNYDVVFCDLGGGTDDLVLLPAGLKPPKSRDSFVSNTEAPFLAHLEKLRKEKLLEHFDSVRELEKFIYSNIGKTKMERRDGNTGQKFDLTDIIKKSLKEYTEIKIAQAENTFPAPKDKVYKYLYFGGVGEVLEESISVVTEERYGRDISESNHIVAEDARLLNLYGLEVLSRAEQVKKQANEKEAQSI

For the molecule `Nc1ncnc2c1ncn2[C@@H]1O[C@H](COP(=O)(O)OP(=O)(O)OP(=O)(O)O)[C@@H](O)[C@H]1O` [ATP], the “EnzChek phosphate release (ATPase on polymerization)” value at Alp7A [1] was “phosphate dissociates rapidly from wild-type Alp7A polymers”. In addition, at Alp7A [2], the “right-angle light scattering of ATP-induced polymerization; phosphate release” value was “addition of Mg-ATP to purified Alp7A-E180A induces formation of stable polymers”.

Regarding “Alp7A (wild type, native, unlabelled) (from UniProt C7F6X5 1-391) (natural protein)”, the concentration threshold of the specific ATPase activity (steady-state phosphate release) of Alp7A, taken as the critical concentration for elongation (ccE) in series [3] is 0.6 µM.

B1: Alp7A-E180A (hydrolysis-dead mutant, unlabelled) (natural protein, Bacillus subtilis (plasmid pLS20), UniProt C7F6X5 1-391, looked up)
chain: T1 sequence (C7F6X5 1-391) with E180A
In the case of B1, the binding result in series [4] is “binds”.
